Reference: patent publication US9345241B2, “Composition having biocide activity for aqueous preparations” (Omya International AG, priority 2008, dated 2016)

Tests used:
[1] = system: Pseudomonas putida; test: Biocidal activity of EDDM biocide in calcium carbonate slurries, plate count; type: cell-based
Description: (§1) All quoted bacterial counts (values are in cfu/ml) in the Tables herebelow are determined after 5 days following plate-out and in accordance with counting method described in “Bestimmung von aeroben mesophilen Keimen”, Schweizerisches Lebensmittelbuch, chapter 56, section 7.01, edition of 1985, revised version of 1988.
(§2) (Ethylenedioxy)dimethanol (EDDM), an aldehyde-releasing biocide, was introduced into 50 g samples of each of calcium carbonate slurry 1 and calcium carbonate slurry 2 in an amount corresponding to 1500 ppm of aldehyde-releasing EDDM biocide based on the weight of the weight of water in the slurry. In parallel, control samples of calcium carbonate slurry 1 and calcium carbonate slurry 2 were prepared in absence of EDDM.
(§3) Half of the samples of calcium carbonate slurry 1 and calcium carbonate slurry 2 were then inoculated with 1 mL of Methylobacterium extorquens, while the remaining samples where inoculated with 1 mL of Pseudomonas putida. Each of the samples was incubated at 30° C. for 72 hours. Thereafter, a 1:10 dilution in phosphate buffered saline (PBS) was plated on plate count agar (PCA). These plates were incubated at 30° C. and analysed after 5 days.

[2] = system: Methylobacterium extorquens; test: as above; type: cell-based
Description: as §1, §2, §3

[3] = EDDM 1500 ppm in combination with lithium
[4] = EDDM alone at 1500 ppm, no lithium

OCOCCOCO [EDDM, (Ethylenedioxy)dimethanol]
bacterial count of the suspension [1, 3]: below 10^4 cfu/ml
resistance of the strain to the biocide implemented alone [1, 4]: show resistance
bacterial count of the suspension [2, 3]: below 10^4 cfu/ml
resistance of the strain to the biocide implemented alone [2, 4]: show resistance
